# Measured values from US20200316083A1, “ANTIBACTERIAL COMPOSITIONS” (WOCKHARDT LIMITED, priority 2016, published 2020).
# Legend:
# Type in all cases: cell-based
# [1] = tested on: K. pneumoniae B-88 producing metallo beta-lactamase enzymes; assay: Time kill study against K. pneumoniae B-88; details: for Effect on bacterial count (in words): summary of Table 1, alone or in combination
# Experimental: (§1) In general, the antibacterial activity of compositions according to invention was studied by performing time kill studies. In a typical time kill study, the freshly grown cultures were diluted to the required cell density (initial starting inoculum) in cation adjusted Muller Hinton broth medium (BD, USA). The antibacterial agents (either alone or in combination) at the required concentrations were added into the culture-containing medium. The samples were incubated under shaking condition (120 rpm) at 37° C. Enumeration of viable bacterial count was done every 2 hour by diluting in normal saline and plating on to the Tryptic Soya Agar plates (BD, USA). The plates were incubated for 24 hours to arrive at a viable bacterial count. The results are expressed in terms of log10 CFU/ml. In general, the decrease of 1 log10 CFU/ml corresponds to 90% killing of bacteria. Similarly, 2 log10 CFU/ml reductions indicates to 99% killing of bacteria and 3 log10 CFU/ml reductions is equal to 99.9% killing of bacteria.
# [2] = tested on: E. coli 7MP producing Class A and Class C beta-lactamase enzymes; assay: Time kill study against E. coli 7MP; details: for Effect on bacterial count (in words): alone or in combination
# Experimental: as §1
# [3] = tested on: A. baumanni 13301 producing Carbapenem hydrolysing beta-lactamase enzymes; assay: Time kill study against A. baumanni 13301; details: for Bacterial count (Log10 CFU/ml) 0 hours / Change in Log10 CFU/ml over 0 hour count after 24 hours / Bacterial count (Log10 CFU/ml) 2 hours / Bacterial count (Log10 CFU/ml) 4 hours / Bacterial count (Log10 CFU/ml) 6 hours / Bacterial count (Log10 CFU/ml) 8 hours / Bacterial count (Log10 CFU/ml) 24 hours: 4 mcg/ml alone; for Effect on bacterial count (in words): summary of Table 3, alone or in combination
# Experimental: as §1
smiles,measurement,setting,value
"CC(C)(O/N=C(\C(=O)N[C@@H]1C(=O)N2C(C(=O)[O-])=C(C[N+]3(CCNC(=O)c4ccc(O)c(O)c4Cl)CCCC3)CS[C@H]12)c1csc(N)n1)C(=O)O [Compound of Formula (I), (6R,7R)-7-[(2Z)-2-(2-amino-1,3-thiazol-4-yl)-2-{[(2-carboxypropan-2-yl)oxy]imino}acetamido]-3-({1-[2-(2-chloro-3,4-dihydroxybenzamido)ethyl]pyrrolidin-1-ium-1-yl}methyl)-8-oxo-5-thia-1-azabicyclo[4.2.0]oct-2-ene-2-carboxylate]",Bacterial count (Log10 CFU/ml) 0 hours,[1]; 0.25 mcg/ml alone,7.28 Log10 CFU/ml
same,Bacterial count (Log10 CFU/ml) 0 hours,[1]; 0.5 mcg/ml alone,7.28 Log10 CFU/ml
same,Change in Log10 CFU/ml over 0 hour count after 24 hours,[1]; 0.25 mcg/ml alone,−0.47 Log10 CFU/ml
same,Change in Log10 CFU/ml over 0 hour count after 24 hours,[1]; 0.5 mcg/ml alone,−0.98 Log10 CFU/ml
same,Bacterial count (Log10 CFU/ml) 2 hours,[1]; 0.25 mcg/ml alone,6.74 Log10 CFU/ml
same,Bacterial count (Log10 CFU/ml) 2 hours,[1]; 0.5 mcg/ml alone,6.18 Log10 CFU/ml
same,Bacterial count (Log10 CFU/ml) 4 hours,[1]; 0.5 mcg/ml alone,5.85 Log10 CFU/ml
same,Bacterial count (Log10 CFU/ml) 6 hours,[1]; 0.25 mcg/ml alone,6.70 Log10 CFU/ml
same,Bacterial count (Log10 CFU/ml) 6 hours,[1]; 0.5 mcg/ml alone,6.30 Log10 CFU/ml
same,Bacterial count (Log10 CFU/ml) 24 hours,[1]; 0.25 mcg/ml alone,6.81 Log10 CFU/ml
same,Bacterial count (Log10 CFU/ml) 24 hours,[1]; 0.5 mcg/ml alone,6.30 Log10 CFU/ml
same,Effect on bacterial count (in words),[1],could not reduce the bacterial count
same,Change in Log10 CFU/ml over 0 hour count after 24 hours,"[2]; Table 2, 0.25 mcg/ml alone",2.12 Log10 CFU/ml
same,Change in Log10 CFU/ml over 0 hour count after 24 hours,"[2]; Table 2, 0.5 mcg/ml alone",2.12 Log10 CFU/ml
same,Bacterial count (Log10 CFU/ml) 2 hours,"[2]; Table 2, 0.25 mcg/ml alone",7.60 Log10 CFU/ml
same,Bacterial count (Log10 CFU/ml) 2 hours,"[2]; Table 2, 0.5 mcg/ml alone",7.18 Log10 CFU/ml
same,Bacterial count (Log10 CFU/ml) 4 hours,"[2]; Table 2, 0.25 mcg/ml alone",9.11 Log10 CFU/ml
same,Bacterial count (Log10 CFU/ml) 4 hours,"[2]; Table 2, 0.5 mcg/ml alone",7.74 Log10 CFU/ml
same,Bacterial count (Log10 CFU/ml) 6 hours,"[2]; Table 2, 0.25 mcg/ml alone",9.20 Log10 CFU/ml
same,Bacterial count (Log10 CFU/ml) 6 hours,"[2]; Table 2, 0.5 mcg/ml alone",9.18 Log10 CFU/ml
same,Bacterial count (Log10 CFU/ml) 24 hours,"[2]; Table 2, 0.25 mcg/ml alone",9.20 Log10 CFU/ml
same,Bacterial count (Log10 CFU/ml) 24 hours,"[2]; Table 2, 0.5 mcg/ml alone",9.20 Log10 CFU/ml
same,Change in Log10 CFU/ml over 0 hour count after 8 hours,"[2]; Table 5, 1 mcg/ml alone",1.57 Log10 CFU/ml
same,Bacterial count (Log10 CFU/ml) 2 hours,"[2]; Table 5, 1 mcg/ml alone",7.15 Log10 CFU/ml
same,Bacterial count (Log10 CFU/ml) 4 hours,"[2]; Table 5, 1 mcg/ml alone",6.60 Log10 CFU/ml
same,Bacterial count (Log10 CFU/ml) 6 hours,"[2]; Table 5, 1 mcg/ml alone",7.90 Log10 CFU/ml
same,Bacterial count (Log10 CFU/ml) 8 hours,"[2]; Table 5, 8 hours, 1 mcg/ml alone",8.65 Log10 CFU/ml
same,Effect on bacterial count (in words),[2]; summary of Table 2,could not reduce the bacterial count
same,Effect on bacterial count (in words),"[2]; summary of Table 5, throughout the duration of the study",did not reduce the bacterial count
same,Bacterial count (Log10 CFU/ml) 0 hours,[3],6.88 Log10 CFU/ml
same,Change in Log10 CFU/ml over 0 hour count after 24 hours,[3],2.22 Log10 CFU/ml
same,Bacterial count (Log10 CFU/ml) 2 hours,[3],4.85 Log10 CFU/ml
same,Bacterial count (Log10 CFU/ml) 4 hours,[3],4.02 Log10 CFU/ml
same,Bacterial count (Log10 CFU/ml) 6 hours,[3],5.18 Log10 CFU/ml
same,Bacterial count (Log10 CFU/ml) 8 hours,[3],7.5 Log10 CFU/ml
same,Bacterial count (Log10 CFU/ml) 24 hours,[3],9.10 Log10 CFU/ml
same,Effect on bacterial count (in words),[3],could not reduce the bacterial count
N#C[C@@H]1CC[C@@H]2CN1C(=O)N2OS(=O)(=O)O [Compound (B)],Bacterial count (Log10 CFU/ml) 0 hours,[1]; 2 mcg/ml alone,7.28 Log10 CFU/ml
same,Change in Log10 CFU/ml over 0 hour count after 24 hours,[1]; 2 mcg/ml alone,2.12 Log10 CFU/ml
same,Bacterial count (Log10 CFU/ml) 2 hours,[1]; 2 mcg/ml alone,8.27 Log10 CFU/ml
same,Bacterial count (Log10 CFU/ml) 4 hours,[1]; 2 mcg/ml alone,9.04 Log10 CFU/ml
same,Bacterial count (Log10 CFU/ml) 6 hours,[1]; 2 mcg/ml alone,9.18 Log10 CFU/ml
same,Bacterial count (Log10 CFU/ml) 24 hours,[1]; 2 mcg/ml alone,9.40 Log10 CFU/ml
same,Effect on bacterial count (in words),[1],could not reduce the bacterial count
same,Change in Log10 CFU/ml over 0 hour count after 24 hours,"[2]; Table 2, 4 mcg/ml alone",2.28 Log10 CFU/ml
same,Bacterial count (Log10 CFU/ml) 2 hours,"[2]; Table 2, 4 mcg/ml alone",7.90 Log10 CFU/ml
same,Bacterial count (Log10 CFU/ml) 4 hours,"[2]; Table 2, 4 mcg/ml alone",9.23 Log10 CFU/ml
same,Bacterial count (Log10 CFU/ml) 6 hours,"[2]; Table 2, 4 mcg/ml alone",9.30 Log10 CFU/ml
same,Bacterial count (Log10 CFU/ml) 24 hours,"[2]; Table 2, 4 mcg/ml alone",9.36 Log10 CFU/ml
same,Effect on bacterial count (in words),[2]; summary of Table 2,could not reduce the bacterial count
same,Bacterial count (Log10 CFU/ml) 0 hours,[3],6.88 Log10 CFU/ml
same,Change in Log10 CFU/ml over 0 hour count after 24 hours,[3],2.16 Log10 CFU/ml
same,Bacterial count (Log10 CFU/ml) 2 hours,[3],8.04 Log10 CFU/ml
same,Bacterial count (Log10 CFU/ml) 4 hours,[3],8.74 Log10 CFU/ml
same,Bacterial count (Log10 CFU/ml) 6 hours,[3],8.90 Log10 CFU/ml
same,Bacterial count (Log10 CFU/ml) 8 hours,[3],9.20 Log10 CFU/ml
same,Bacterial count (Log10 CFU/ml) 24 hours,[3],9.04 Log10 CFU/ml
same,Effect on bacterial count (in words),[3],could not reduce the bacterial count
